Test results taken from PMC2677215 (Biochemical Journal, 2009).

Tests used:
Experiment in all cases: radiometric citrulline NOS assay
Assay type in all cases: biochemical
[1] = molecular target: T1, Physarum NOS form B (clone B+; physnosb) (Badhamia polycephala, UniProt A6XKZ6)
[2] = molecular target: T2, Physarum NOS form A (clone A1; physnosa) (Badhamia polycephala, UniProt A6XKZ4)
[3] = molecular target: T2, Physarum NOS form A (clone A1; physnosa); remark: listed apart in the source
[4] = molecular target: T1, Physarum NOS form B (clone B+; physnosb); remark: listed apart in the source

Cc1cc2nc3c(=O)[nH]c(=O)nc-3n(C[C@H](O)[C@H](O)[C@H](O)COP(=O)(O)OP(=O)(O)OC[C@H]3O[C@@H](n4cnc5c(N)ncnc54)[C@H](O)[C@@H]3O)c2cc1C [FAD]
EC50 [1]: 2.1 ± 1.6 µM
EC50 [2]: 3.9 ± 1.6 µM

Cc1cc2nc3c(=O)[nH]c(=O)nc-3n(C[C@H](O)[C@H](O)[C@H](O)COP(=O)(O)O)c2cc1C [FMN]
EC50 [1]: 0.2 ± 0.2 µM
EC50 [2]: 1.7 ± 0.6 µM

C[C@H](O)[C@H](O)[C@H]1CNc2nc(N)[nH]c(=O)c2N1 [H4-bip, 6R-5,6,7,8-tetrahydro-L-biopterin]
EC50 [1]: 0.7 ± 0.1 µM
EC50 [2]: 7.9 ± 1.2 µM

CC(=N)NCCCC[C@H](N)C(=O)O [L-NIL, L-N6(1-iminoethyl)-lysine]
IC50 [3]: 81.3 ± 7.8 µM
IC50 [4]: 76.7 ± 4.3 µM

CNC(=N)NCCC[C@H](N)C(=O)O [L-NMMA, N^ω-methyl-L-arginine]
IC50 [3]: 45.2 ± 23.5 µM
IC50 [4]: 44.3 ± 19.2 µM

N=C(NCCC[C@H](N)C(=O)O)N[N+](=O)[O-] [L-NNA, N^ω-nitro-L-arginine]
IC50 [3]: 25.7 ± 10.7 µM
IC50 [4]: 39.8 ± 20.3 µM

NC(=O)C1=CN([C@@H]2O[C@H](COP(=O)(O)OP(=O)(O)OC[C@H]3O[C@@H](n4cnc5c(N)ncnc54)[C@H](OP(=O)(O)O)[C@@H]3O)[C@@H](O)[C@H]2O)C=CC1 [NADPH]
EC50 [1]: 60.3 ± 13.8 µM
EC50 [2]: 57.2 ± 6.5 µM
